From patent US20230090439A1, “PHARMACEUTICAL COMPOSITION FOR CONTROLLING PARASITES ON NON-HUMAN ORGANISMS” (priority 2020, published 2023) come the findings set out here.

The nature of the data set: Solubility experiments (saturation solubility in solvents, HPLC-UV of supernatant). The format is physicochemical. The following applies: for Solubility in the solvent mixture of the composition according to the invention (in words): isopropanol/propylene carbonate 65:35, room temperature. An excerpt:
Dissolution experiments for active ingredients I-1, I-2, I-3 and I-4 in solvents for a pharmaceutical composition according to the invention are presented below. For biological effect, the active ingredient should be incorporated at a certain dose or amount in the formulation, in the ideal case it should be a solution in the formulation such that the active ingredient is therefore dissolved in the solvent. A certain minimum solubility is required for the solvent since the application volume is limited.
In this case, 10 g of the appropriate solvent or solvent mixture were initially charged and as much active ingredient was added until the solution is saturated. Isopropanol (IPA) and propylene carbonate (PPC) were used as solvents. The samples were stirred for 3 days. Should the active ingredient become fully dissolved, active ingredient was again added. Subsequently, the samples were stored for a further 4 days at the relevant temperature and centrifuged in order to remove the undissolved particles. The supernatants were analyzed in each case for active ingredient content by HPLC-UV.
Furthermore, solubility experiments with three further active ingredients from the class of fluorinated heteroarylamides in different solvents were carried out. The solubility experiments were carried out analogously to the experiments described above, however only at room temperature and the solvent mixture isopropanol/propylene carbonate 65:35% [m/m] was selected.
Experiments with solvent systems were also carried out in which the first solvent comprised two alcohols.

[1] abbreviates: Isopropanol, room temperature (Table 2).
Where [2] appears, read: Isopropanol/propylene carbonate 65/35, room temperature (Table 2).
The mark [3] stands for this setting: Propylene carbonate, room temperature (Table 2).

Where only a bound is given, the exact number is not on record here.

The compound `CN(C(=O)c1cc(-c2cnn(-c3c(Cl)cc(C(F)(C(F)(F)F)C(F)(F)F)cc3Cl)c2)cnc1Cl)C1CC1` [I-1, 2-chloro-N-cyclopropyl-5-[1-[2,6-dichloro-4-[1,2,2,2-tetrafluoro-1-(trifluoromethyl)-ethyl]phenyl]pyrazol-4-yl]-N-methylpyridine-3-carboxamide] returned a Saturation solubility (Ethanol (Table 3)) of 2.76 % [ w/w]; a Saturation solubility (Ethanol/glycerol carbonate 65:35 (Table 3)) of 6.48 % [ w/w]; a Saturation solubility (Ethanol/propylene carbonate 65:35 (Table 3)) of 9.45 % [ w/w]; a Saturation solubility (Glycerol carbonate (Table 3)) of 0.15 % [ w/w]; a Saturation solubility (Isopropanol (Table 3)) of 1.56 % [ w/w]; a Saturation solubility (Isopropanol/glycerol carbonate 65:35 (Table 3)) of 5.98 % [ w/w]. Moreover, under “Propylene carbonate (Table 3)”, the Saturation solubility is 2.43 % [ w/w]. The Solubility is over 5 % [w/w] (Ethanol/propylene carbonate/glycerol carbonate 65:17.5:17.5), over 5 % [w/w] (Isopropanol/ethanol/glycerol carbonate 32.5:32.5:35), over 5 % [w/w] (Isopropanol/ethanol/propylene carbonate 32.5:32.5:35) and over 5 % [w/w] (Isopropanol/propylene carbonate/glycerol carbonate 65:17.5:17.5). The “Saturation concentration of the solution” value is, setting by setting: (IPA/PPC 25/75 23° C.) 7.58 %[w/w]; (IPA/PPC 35/65 23° C.) 8.79 %[w/w]; (IPA/PPC 50/50 23° C.) 9.26 %[w/w]; (IPA/PPC 60/40 23° C.) 8.60 %[w/w]; (IPA/PPC 65/35 5° C.) 6.32 %[w/w]; (IPA/PPC 65/35 23° C.) 8.31 %[w/w]. For the same compound, the “Saturation concentration of the solution” value was 7.49 %[w/w] (IPA/PPC 70/30 23° C.); 6.70 %[w/w] (IPA/PPC 75/25 23° C.); 5.90 %[w/w] (IPA/PPC 80/20 23° C.); 3.74 %[w/w] (IPA/PPC 90/10 23° C.); 0.98 %[w/w] (Isopropanol 5° C.); 1.56 %[w/w] (Isopropanol 23° C.). Also, the “Saturation concentration of the solution” value is 1.80 %[w/w] (Propylene carbonate 5° C.) and 2.43 %[w/w] (Propylene carbonate 23° C.). Also, under “mixture of isopropanol and propylene carbonate vs pure solvents”, the “Solubility in the mixture of isopropanol and propylene carbonate compared to the pure solvents (in words)” value is “significant solubility increase”. For the same compound, the “Solubility in the solvent systems of Table 4 (in words)” value (three-component alcohol/carbonate solvent systems of Table 4) is on record as “good solubilities”.

Regarding `O=C(NC1CC1)c1cc(-c2cnn(-c3c(Cl)cc(C(F)(C(F)(F)F)C(F)(F)F)cc3C(F)(F)F)c2)cnc1Cl` [I-3, 2-chloro-5-[1-[2-chloro-4-[1,2,2,2-tetrafluoro-1-(trifluoromethyl)ethyl]-6-(trifluoromethyl)phenyl]-1H-pyrazol-4-yl]-N-cyclopropyl-3-pyridinecarboxamide], the “Solubility in the solvent mixture of the composition according to the invention (in words)” value (“Solubility in the solvent mixture” for short) is given as “very good solubilities”. The same compound registered a Saturation solubility under setting [1] of 4.18 % [w/w]. The compound also displayed a Saturation solubility under setting [2] of 17.57 % [w/w]. The compound also returned a Saturation solubility under setting [3] of 4.89 % [w/w].

Regarding `O=C(NC1CC1)c1cc(-c2cnn(-c3c(Br)cc(C(F)(C(F)(F)F)C(F)(F)F)cc3OC(F)(F)F)c2)cnc1Cl` [I-4], the “Solubility in the solvent mixture” value was “very good solubilities”. Also, under setting [1], the Saturation solubility stood at 13.42 % [w/w]. Also, the Saturation solubility under setting [2] stood at 29.38 % [w/w]. Besides, under setting [3], the Saturation solubility was found to be 11.76 % [w/w].

`O=C(NC1CC1)c1cc(-c2cnn(-c3c(Cl)cc(C(F)(C(F)(F)F)C(F)(F)F)cc3OC(F)(F)F)c2)cnc1Cl` [I-2]: the “Solubility in the solvent mixture” value was “very good solubilities”. The Saturation solubility under setting [1] worked out at 6.99 % [w/w]. In addition, the Saturation solubility under setting [2] turned out to be 24.20 % [w/w]. Under setting [3], this compound gave a Saturation solubility of 5.34 % [w/w].
